The values that follow come from patent US20250179059A1 (The Regents of the University of California, priority 2021, published 2025).

Where two headings read alike, the source gives them in different places.

Assay [1] deals with T1, human BRD4 bromodomain II (Homo sapiens, UniProt O60885).
T1 construct: human BRD4 bromodomain II [based on Genbank NM_058243, residues 349-460]; host or cells: E. coli
As to the kind of experiment: Bromodomain binding assay (AlphaScreen), BRD4 BDII. In outline: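 Compounds (10-point, 3-fold series) were preincubated 30 min at room temperature with E. coli-expressed N-terminal His6-tagged BRD4 BDII (residues 349-460) or BDI (residues 44-170) in 50 mM HEPES pH 7.5, 100 mM NaCl, 0.05% CHAPS, 0.1% BSA, 1% DMSO. Displacement of biotinylated tetra-acetylated H4 1-21 peptide was read by AlphaScreen; IC50 from curve fitting.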

Assay [2] has as its system human SKM-1 acute myeloid leukemia cells. The experiment in a line: SKM-1 antiproliferation cell-based assay (ATPlite). Conditions: Homo sapiens. Summed up:
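Log-phase cells in RPMI 1640/15% FBS were seeded at 34722 cells/mL and exposed for 4 days to nine-concentration DMSO serial dilutions in triplicate. Viability was read as ATP luminescence (ATPlite 1step), and IC50 values came from variable-slope non-linear regression.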
Background: In ATP-based viability assays light output follows the ATP content of the culture.

Setting [3] is: AlphaScreen assay, Table C2, read-out: BRD4 BDII IC50.
Setting [4] is: SKM-1, 96 h, SKM-1 antiproliferation assay, 4 days, Table C2.
[5] abbreviates: BRD4 BDII AlphaScreen assay, read-out: BRD4 BD2 IC50.
Where [6] appears, read: SKM-1, SKM-1 antiproliferation assay.

By IC50 is commonly meant the concentration that inhibits the measured activity by half. What is called GI50 is the concentration giving 50% growth inhibition. A higher GI50 goes with lower sensitivity of the cells. For `Cc1ccc(-c2cc(F)cc(-c3ccc(-n4ccn(C)c4=O)c(Cl)c3)c2O)cc1N1CC(O)(CO)C1` [Example 841, 1-(3-chloro-5′-fluoro-2′-hydroxy-3″-(3-hydroxy-3-(hydroxymethyl)azetidin-1-yl)-4″-methyl-[1,1′:3′,1″-terphenyl]-4-yl)-3-methyl-1H-imidazol-2(3H)-one], the IC50 in assay [1] (setting [3]) lay within 1 to 10 nM. In addition, the concentration for 50% growth inhibition (GI50) in assay [2] (setting [4]) is 30 to 300 nM.

Consider `Cc1cc(-c2ccc(-n3ccn(C)c3=O)c(Cl)c2)c(O)c(-c2cc(N3CCN(C(C)(C)C)CC3)n(C)c(=O)c2)n1` [Example 1009, 6′-(4-(tert-butyl)piperazin-1-yl)-4-(3-chloro-4-(3-methyl-2-oxo-2,3-dihydro-1H-imidazol-1-yl)phenyl)-3-hydroxy-1′,6-dimethyl-[2,4′-bipyridin]-2′(1′H)-one], for which the IC50 in assay [1] (setting [5]) is 1 to 10 nM. The same compound came in with a GI50 in assay [2] (setting [6]) of 0.3 to 30 nM.

Take `COCCCN1CCN(c2cc(-c3cc(F)cc(-c4ccc(-n5ccn(C)c5=O)c(Cl)c4)c3O)ccn2)CC1` [Example 633, 1-(3-chloro-5′-fluoro-2′-hydroxy-3′-(2-(4-(3-methoxypropyl)piperazin-1-yl)pyridin-4-yl)-[1,1′-biphenyl]-4-yl)-3-methyl-1H-imidazol-2(3H)-one]: the IC50 in assay [1] (setting [3]) is 0.01 to 1 nM. The compound also gave a GI50 in assay [2] (setting [4]) of 0.3 to 30 nM.

Take `Cc1ccc(-c2cc(F)cc(-c3ccc(-n4ccn(C)c4=O)c(Cl)c3)c2O)cc1N1CC(C)(O)C2(CC2)C1` (stereo not shown) [Example 854, 1-(3-Chloro-5′-fluoro-2′-hydroxy-338-(7-hydroxy-7-methyl-5-azaspiro[2.4]heptan-5-yl)-4″-methyl-[1,1′:3′,1″-terphenyl]-4-yl)-3-methyl-1H-imidazol-2(3H)-one]: the IC50 in assay [1] (setting [5]) was in the range of 1 to 10 nM. The compound further had a GI50 in assay [2] (setting [6]) of 30 to 300 nM.

Regarding `Cn1ccn(-c2ccc(-c3cc(F)cc(-c4ccnc(N5CCN[C@H](CC(N)=O)C5)c4)c3O)cc2Cl)c1=O` [Example 644, (R)-2-(4-(4-(3′-chloro-5-fluoro-2-hydroxy-4′-(3-methyl-2-oxo-2,3-dihydro-1H-imidazol-1-yl)-[1,1′-biphenyl]-3-yl)pyridin-2-yl)piperazin-2-yl)acetamide], the IC50 in assay [1] (setting [3]) is 0.01 to 1 nM. For the same compound, the GI50 in assay [2] (setting [4]) lay in the range of 0.3 to 30 nM.

Turning to `Cn1ccn(-c2ccc(-c3cc(F)cc(-c4ccnc(N5C[C@@H](O)[C@H](F)C5)c4)c3O)cc2Cl)c1=O` [Example 781, 1-(3-chloro-5′-fluoro-3′-(2-((3R,4R)-3-fluoro-4-hydroxypyrrolidin-1-yl)pyridin-4-yl)-2′-hydroxy-[1,1′-biphenyl]-4-yl)-3-methyl-1H-imidazol-2(3H)-one], in assay [1] (setting [3]), the IC50 lay in the range of 1 to 10 nM. Further, in assay [2] (setting [4]), the 50% growth inhibitory concentration (GI50) lay in the range of 30 to 300 nM.

Regarding `CC(C)N1CCCC12CCN(c1cc(-c3cc(F)cc(-c4ccc(-n5ccn(C)c5=O)c(Cl)c4)c3O)ccn1)C2` (stereo not shown) [Example 751, 1-(3-chloro-5′-fluoro-2′-hydroxy-3′-(2-(1-isopropyl-1,7-diazaspiro[4.4]nonan-7-yl)pyridin-4-yl)-[1,1′-biphenyl]-4-yl)-3-methyl-1H-imidazol-2(3H)-one], in assay [1] (setting [3]), the IC50 fell in the range of 1 to 10 nM. In assay [2] (setting [4]), the GI50 fell in the range of 0.3 to 30 nM.

As to `Cc1cc(-c2ccc(-n3ccn(C)c3=O)c(Cl)c2)c(O)c(-c2cc(N3CCN(C(C)(C)C)CC3)n3ccnc3c2)n1` [Example 1002, 1-(4-(2-(5-(4-(tert-butyl)piperazin-1-yl)imidazo[1,2-a]pyridin-7-yl)-3-hydroxy-6-methylpyridin-4-yl)-2-chlorophenyl)-3-methyl-1H-imidazol-2(3H)-one], the IC50 in assay [1] (setting [5]) lay in the range of 1 to 10 nM. In assay [2] (setting [6]), this compound had a GI50 of 0.3 to 30 nM.

With `COc1ncc(-c2cc(F)cc(-c3ccc(-n4ccn(C)c4=O)c(Cl)c3)c2O)cc1N1CC(C)(C)[C@@](C)(O)C1` [Example 872], the IC50 in assay [1] (setting [5]) lay within 0.01 to 1 nM. This compound showed a GI50 in assay [2] (setting [6]) of 30 to 300 nM.

`CN1CCN(c2c(F)cc(-c3cc(F)cc(-c4ccnc(N5CCNCC5)c4)c3O)cc2Cl)C1=O` [Example 400, 1-(3-chloro-5,5′-difluoro-2′-hydroxy-3′-(2-(piperazin-1-yl)pyridin-4-yl)-[1,1′-biphenyl]-4-yl)-3-methylimidazolidin-2-one]: the IC50 in assay [1] (setting [3]) was in the range of 10 to 100 nM. The compound further gave a GI50 in assay [2] (setting [4]) of 300 to 3000 nM.

Take `Cn1ccn(-c2ccc(-c3cc(F)cc(-c4ccc(OC5CCNCC5)nc4)c3O)cc2Cl)c1=O` [Example 445, 1-(3-chloro-5′-fluoro-2′-hydroxy-3′-(6-(piperidin-4-yloxy)pyridin-3-yl)-[1,1′-biphenyl]-4-yl)-3-methyl-1H-imidazol-2(3H)-one]: in assay [1] (setting [3]), the IC50 was in the range of 1 to 10 nM. For the same compound, the concentration for 50% growth inhibition (GI50) in assay [2] (setting [4]) is 300 to 3000 nM.

Turning to `CC1CCN(c2ccc(-c3cccc(-c4ccnc(N5CCNCC5)c4)c3O)cc2Cl)C1=O` (stereo not shown) [Example 328, 1-(3-chloro-2′-hydroxy-3′-(2-(piperazin-1-yl)pyridin-4-yl)-[1,1′-biphenyl]-4-yl)-3-methylpyrrolidin-2-one], the IC50 in assay [1] (setting [3]) lay within 1 to 10 nM. The same compound showed a GI50 in assay [2] (setting [4]) of 300 to 3000 nM.

With `CCc1ncc(-c2cc(F)cc(-c3ccc(-n4ccn(C)c4=O)c(Cl)c3)c2O)cc1N1CCN(C(C)C)CC1` [Example 756, 1-(3-chloro-3′-(6-ethyl-5-(4-isopropylpiperazin-1-yl)pyridin-3-yl)-5′-fluoro-2′-hydroxy-[1,1′-biphenyl]-4-yl)-3-methyl-1H-imidazol-2(3H)-one], the IC50 in assay [1] (setting [3]) fell in the range of 0.01 to 1 nM. The GI50 in assay [2] (setting [4]) fell in the range of 0.3 to 30 nM.

As to `Cn1ccn(-c2ccc(-c3cc(F)cc(-c4cc(N5CCC[C@@H](N)C5)c5cn[nH]c5c4)c3O)cc2Cl)c1=O` [Example 586, (R)-1-(3′-(4-(3-aminopiperidin-1-yl)-1H-indazol-6-yl)-3-chloro-5′-fluoro-2′-hydroxy-[1,1′-biphenyl]-4-yl)-3-methyl-1H-imidazol-2(3H)-one], in assay [1] (setting [3]), the half-maximal inhibitory concentration (IC50) is 1 to 10 nM. Besides, in assay [2] (setting [4]), the GI50 lay within 0.3 to 30 nM.

As to `O=C1NCCN1c1ccc(-c2cc(F)cc(-c3ccnc(N4CCNCC4)c3)c2O)cc1Cl` [Example 373, 1-(3-chloro-5′-fluoro-2′-hydroxy-3′-(2-(piperazin-1-yl)pyridin-4-yl)-[1,1′-biphenyl]-4-yl)imidazolidin-2-one], in assay [1] (setting [3]), the IC50 was 10 to 100 nM. In assay [2] (setting [4]), the concentration for 50% growth inhibition (GI50) is 300 to 3000 nM.

On to `Cn1ccn(-c2ccc(-c3cc(F)cc(-c4ccnc(N5CCC[C@H](N)C5)c4)c3O)cc2Cl)c1=O` [Example 411, (S)-1-(3′-(2-(3-aminopiperidin-1-yl)pyridin-4-yl)-3-chloro-5′-fluoro-2′-hydroxy-[1,1′-biphenyl]-4-yl)-3-methyl-1H-imidazol-2(3H)-one], for which the IC50 in assay [1] (setting [3]) fell in the range of 0.01 to 1 nM. In assay [2] (setting [4]), this compound registered a GI50 of 0.3 to 30 nM.

Consider `Cn1ccn(-c2ccc(-c3cc(F)cc(-c4ccc(Cl)c(N5CC[C@@](C)(O)C5)c4)c3O)cc2Cl)c1=O` [Example 842, (R)-1-(3,4″-dichloro-5′-fluoro-2′-hydroxy-3″-(3-hydroxy-3-methylpyrrolidin-1-yl)-[1,1′:3′,1″-terphenyl]-4-yl)-3-methyl-1H-imidazol-2(3H)-one], for which, in assay [1] (setting [3]), the IC50 lay within 1 to 10 nM. The compound also displayed a GI50 in assay [2] (setting [4]) of 30 to 300 nM.

`CSc1ncc(-c2cc(F)cc(-c3ccc(-n4ccn(C)c4=O)c(Cl)c3)c2O)cc1N1CCN(C(C)C)CC1` [Example 817, 1-(3-chloro-5′-fluoro-2′-hydroxy-3′-(5-(4-isopropylpiperazin-1-yl)-6-(methylthio)pyridin-3-yl)-[1,1′-biphenyl]-4-yl)-3-methyl-1H-imidazol-2(3H)-one]: in assay [1] (setting [3]), the IC50 lay in the range of 1 to 10 nM. Besides, the GI50 in assay [2] (setting [4]) was 0.3 to 30 nM.

For the compound `COC[C@@H]1CN(c2cc(-c3cc(F)cc(-c4ccc(-n5ccn(C)c5=O)c(Cl)c4)c3O)ccn2)CCN1` [Example 666, (S)-1-(3-chloro-5′-fluoro-2′-hydroxy-3′-(2-(3-(methoxymethyl)piperazin-1-yl)pyridin-4-yl)-[1,1′-biphenyl]-4-yl)-3-methyl-1H-imidazol-2(3H)-one], the IC50 in assay [1] (setting [3]) was 0.01 to 1 nM. This compound showed a GI50 in assay [2] (setting [4]) of 0.3 to 30 nM.

Take `[2H]C([2H])([2H])n1ccn(-c2ccc(-c3cc(F)cc(-c4ccnc(N5CCNCC5)c4)c3O)cc2Cl)c1=O` [Example 409, 1-(3-chloro-5′-fluoro-2′-hydroxy-3′-(2-(piperazin-1-yl)pyridin-4-yl)-[1,1′-biphenyl]-4-yl)-3-(trideuteromethyl)-1H-imidazol-2(3H)-one]: the IC50 in assay [1] (setting [3]) lay within 1 to 10 nM. The GI50 in assay [2] (setting [4]) lay in the range of 0.3 to 30 nM.

`CC1CC(=O)N(c2ccc(-c3cccc(-c4ccnc(N5CCNCC5)c4)c3O)cc2Cl)C1` (stereo not shown) [Example 340, 1-(3-chloro-2′-hydroxy-3′-(2-(piperazin-1-yl)pyridin-4-yl)-[1,1′-biphenyl]-4-yl)-4-methylpyrrolidin-2-one]: the IC50 in assay [1] (setting [3]) is greater than 100 nM. The compound further returned a GI50 in assay [2] (setting [4]) of 300 to 3000 nM.

As to `Cn1ccn(-c2ccc(-c3cc(F)cc(-c4ccnc(N5CC[C@H](N)C5)c4)c3N)cc2Cl)c1=O` [Example 541, (S)-1-(2′-amino-3′-(2-(3-aminopyrrolidin-1-yl)pyridin-4-yl)-3-chloro-5′-fluoro-[1,1′-biphenyl]-4-yl)-3-methyl-1H-imidazol-2(3H)-one], the IC50 in assay [1] (setting [3]) lay within 1 to 10 nM. Further, the GI50 in assay [2] (setting [4]) is 30 to 300 nM.

For the compound `Cn1ccn(-c2ccc(-c3cc(F)cc(-c4cc(N5CC[C@](C)(N)C5)n(C)c(=O)c4)c3O)cc2Cl)c1=O` [Example 765, (S)-6-(3-amino-3-methylpyrrolidin-1-yl)-4-(3′-chloro-5-fluoro-2-hydroxy-4′-(3-methyl-2-oxo-2,3-dihydro-1H-imidazol-1-yl)-[1,1′-biphenyl]-3-yl)-1-methylpyridin-2(1H)-one], in assay [1] (setting [3]), the concentration for half-maximal inhibition (IC50) is 1 to 10 nM. The compound also yielded a concentration for 50% growth inhibition (GI50) in assay [2] (setting [4]) of 0.3 to 30 nM.
